Reference: ChEMBL document CHEMBL1152576, “E-Combretastatin and E-resveratrol structural modifications: antimicrobial and cancer cell growth inhibitory beta-E-nitrostyrenes” (Bioorg Med Chem, 2009)
pIC50: −log10 of the molar value. Converted amounts (≈) assume the structure as drawn. The source made the active and inactive calls. The calls are words filed in the database; no cut-off is given here.

Key:
Cryptococcus neoformans [1] = experiment: Antimicrobial activity against Cryptococcus neoformans ATCC 90112 assessed clear zone in inhibition per disk by CLSI disk diffusion susceptibility assay; assay type: functional
[2] = Inhibition of tubulin polymerization
Enterococcus faecalis [3] = experiment: Antimicrobial activity against Enterococcus faecalis ATCC 29212 assessed clear zone in inhibition per disk by CLSI disk diffusion susceptibility assay; assay type: functional
KM-20L2 = experiment: Cytotoxicity against human KM20L2 cells after 48 hrs by sulforhodamine B assay; assay type: functional; conditions: KM-20L2, 48 h
Enterobacter cloacae [4] = experiment: Antimicrobial activity against Enterobacter cloacae ATCC 13047 by broth microdilution susceptibility assay; assay type: functional
Escherichia coli [5] = experiment: Antimicrobial activity against Escherichia coli ATCC 25922 by broth microdilution susceptibility assay; assay type: functional
Candida albicans [6] = experiment: Antifungal activity against Candida albicans ATCC 90028 after 24 hrs by broth microdilution susceptibility assay; assay type: functional; conditions: ATCC 90028, 24 h
Candida albicans [7] = experiment: Antimicrobial activity against Candida albicans ATCC 90028 assessed clear zone in inhibition per disk by CLSI disk diffusion susceptibility assay; assay type: functional
Cryptococcus neoformans [8] = experiment: Antifungal activity against Cryptococcus neoformans ATCC 90112 after 48 hrs by broth microdilution susceptibility assay; assay type: functional; conditions: ATCC 90112, 48 h
Candida albicans [9] = experiment: Antifungal activity against Candida albicans ATCC 90028 after 48 hrs by broth microdilution susceptibility assay; assay type: functional; conditions: ATCC 90028, 48 h
Escherichia coli [10] = experiment: Antimicrobial activity against Escherichia coli ATCC 25922 assessed clear zone in inhibition per disk by CLSI disk diffusion susceptibility assay; assay type: functional
Staphylococcus aureus [11] = experiment: Antimicrobial activity against Staphylococcus aureus ATCC 29213 by broth microdilution susceptibility assay; assay type: functional
DU-145 = experiment: Cytotoxicity against human DU145 cells after 48 hrs by sulforhodamine B assay; assay type: functional; conditions: DU-145, 48 h
Cryptococcus neoformans [12] = experiment: Antifungal activity against Cryptococcus neoformans ATCC 90112 after 72 hrs by broth microdilution susceptibility assay; assay type: functional; conditions: ATCC 90112, 72 h
Micrococcus luteus [13] = experiment: Antimicrobial activity against Micrococcus luteus Presque Isle 456 by broth microdilution susceptibility assay; assay type: functional
SF-268 = experiment: Cytotoxicity against human SF268 cells after 48 hrs by sulforhodamine B assay; assay type: functional
P388 = experiment: Cytotoxicity against mouse P388 cells after 48 hrs by sulforhodamine B assay; assay type: functional; conditions: P388, 48 h, read-out: ED50 (the source's name)
Streptococcus pneumoniae [14] = experiment: Antimicrobial activity against Streptococcus pneumoniae ATCC 6303 by broth microdilution susceptibility assay; assay type: functional
Micrococcus luteus [15] = experiment: Antimicrobial activity against Micrococcus luteus Presque Isle 456 assessed clear zone in inhibition per disk by CLSI disk diffusion susceptibility assay; assay type: functional
Streptococcus pneumoniae [16] = experiment: Antimicrobial activity against Streptococcus pneumoniae ATCC 6303 assessed clear zone in inhibition per disk by CLSI disk diffusion susceptibility assay; assay type: functional
A498 = experiment: Cytotoxicity against human A498 cells after 48 hrs by sulforhodamine B assay; assay type: functional
MCF7 = experiment: Cytotoxicity against human MCF7 cells after 48 hrs by sulforhodamine B assay; assay type: functional; conditions: MCF7, 48 h
Neisseria gonorrhoeae [17] = experiment: Antimicrobial activity against Neisseria gonorrhoeae ATCC 49226 after 24 hrs by broth microdilution susceptibility assay; assay type: functional; conditions: ATCC 49226, 24 h
[18] = test system: Stenotrophomonas maltophilia; experiment: Antimicrobial activity against Stenotrophomonas maltophilia ATCC 13637 assessed clear zone in inhibition per disk by CLSI disk diffusion susceptibility assay; assay type: functional
SK-MEL-5 = experiment: Cytotoxicity against human SK-MEL-5 cells after 48 hrs by sulforhodamine B assay; assay type: functional
BXPC-3 = experiment: Cytotoxicity against human BxPC3 cells after 48 hrs by sulforhodamine B assay; assay type: functional; conditions: BXPC-3, 48 h
Neisseria gonorrhoeae [19] = experiment: Antimicrobial activity against Neisseria gonorrhoeae ATCC 49226 assessed clear zone of inhibition measured per disk by CLSI disk diffusion susceptibility assay; assay type: functional
Enterococcus faecalis [20] = experiment: Antimicrobial activity against Enterococcus faecalis ATCC 29212 by broth microdilution susceptibility assay; assay type: functional
NCI-H460 = experiment: Cytotoxicity against human NCI-H460 cells after 48 hrs by sulforhodamine B assay; assay type: functional; conditions: NCI-H460, 48 h
Staphylococcus aureus [21] = experiment: Antimicrobial activity against Staphylococcus aureus ATCC 29213 assessed clear zone in inhibition per disk by CLSI disk diffusion susceptibility assay; assay type: functional
OVCAR-3 = experiment: Cytotoxicity against human OVCAR-3 cells after 48 hrs by sulforhodamine B assay; assay type: functional
SF-295 = experiment: Cytotoxicity against human SF295 cells after 48 hrs by sulforhodamine B assay; assay type: functional
Neisseria gonorrhoeae [22] = experiment: Antimicrobial activity against Neisseria gonorrhoeae ATCC 49226 by broth microdilution susceptibility assay; assay type: functional
Enterobacter cloacae [23] = experiment: Antimicrobial activity against Enterobacter cloacae ATCC 13047 assessed clear zone in inhibition per disk by CLSI disk diffusion susceptibility assay; assay type: functional
[24] = test system: Stenotrophomonas maltophilia; experiment: Antimicrobial activity against Stenotrophomonas maltophilia ATCC 13637 by broth microdilution susceptibility assay; assay type: functional

SMILES	MIC (Cryptococcus neoformans [1]) [µg]	pIC50 [2]	MIC (Enterococcus faecalis [3]) [µg]	GI50 (KM-20L2) [µg/mL]	MIC (Enterobacter cloacae [4]) [µg/mL]	MIC (Escherichia coli [5]) [µg/mL]	MFC (Candida albicans [6]) [µg/mL]	MIC (Candida albicans [7]) [µg]	MFC (Cryptococcus neoformans [8]) [µg/mL]	MIC (Candida albicans [9]) [µg/mL]	MIC (Escherichia coli [10]) [µg]	MIC (Staphylococcus aureus [11]) [µg/mL]	GI50 (DU-145) [µg/mL]	MIC (Cryptococcus neoformans [12]) [µg/mL]	MIC (Micrococcus luteus [13]) [µg/mL]	EC50 (P388) [µg/mL]	MIC (Streptococcus pneumoniae [14]) [µg/mL]	MIC (Micrococcus luteus [15]) [µg]	MIC (Streptococcus pneumoniae [16]) [µg]	GI50 (A498)	other results
COc1ccc(/C=C/[N+](=O)[O-])cc1	1.56	5.24	50	1.5 (≈ 8.37 µM)	> 64	> 64	16 (≈ 89.3 µM)	3.12	16 (≈ 89.3 µM)	8 (≈ 44.6 µM)	6.25	> 64	1.7 (≈ 9.49 µM)	16 (≈ 89.3 µM)	> 64	1.7 (≈ 9.49 µM)	> 64	50	6.25	inactive	GI50 (SF-268): inactive; GI50 (MCF7): 0.54 µg/mL (≈ 3.01 µM); MBC (Neisseria gonorrhoeae [17]): 2 µg/mL (≈ 11.2 µM); MIC [18]: 12.5 µg; GI50 (SK-MEL-5): inactive; GI50 (BXPC-3): 1.8 µg/mL (≈ 10 µM); MIC (Neisseria gonorrhoeae [19]): 0.78 µg; MIC (Enterococcus faecalis [20]): > 64 µg/mL; GI50 (NCI-H460): 1.7 µg/mL (≈ 9.49 µM); MIC (Staphylococcus aureus [21]): 12.5 µg; GI50 (OVCAR-3): inactive; GI50 (SF-295; SF-295, 48 h): 1.6 µg/mL (≈ 8.93 µM); MIC (Neisseria gonorrhoeae [22]): 2 µg/mL (≈ 11.2 µM); MIC (Enterobacter cloacae [23]): 12.5 µg; MIC [24]: > 64 µg/mL
COc1ccc(/C=C/[N+](=O)[O-])cc1OC	3.12	5.22	25	1.3 (≈ 6.21 µM)	> 64	> 64	16 (≈ 76.5 µM)	6.25	16 (≈ 76.5 µM)	16 (≈ 76.5 µM)	25	> 64	1.4 (≈ 6.69 µM)	16 (≈ 76.5 µM)	> 64	0.34 (≈ 1.63 µM)	> 64	50	12.5	inactive	GI50 (SF-268; SF-268, 48 h): 0.71 µg/mL (≈ 3.39 µM); GI50 (MCF7): 0.53 µg/mL (≈ 2.53 µM); MBC (Neisseria gonorrhoeae [17]): 4 µg/mL (≈ 19.1 µM); MIC [18]: >100 µg; GI50 (SK-MEL-5): inactive; GI50 (BXPC-3): 1.5 µg/mL (≈ 7.17 µM); MIC (Neisseria gonorrhoeae [19]): 0.78 µg; MIC (Enterococcus faecalis [20]): > 64 µg/mL; GI50 (NCI-H460): 0.46 µg/mL (≈ 2.2 µM); MIC (Staphylococcus aureus [21]): 25 µg; GI50 (OVCAR-3): inactive; GI50 (SF-295): inactive; MIC (Neisseria gonorrhoeae [22]): 4 µg/mL (≈ 19.1 µM); MIC (Enterobacter cloacae [23]): >100 µg; MIC [24]: > 64 µg/mL
O=[N+]([O-])/C=C/c1ccc(O)cc1	6.25	5.00	6.25	1.5 (≈ 9.08 µM)	> 64	> 64	16 (≈ 96.9 µM)	12.5	8 (≈ 48.4 µM)	16 (≈ 96.9 µM)	12.5	> 64	1.5 (≈ 9.08 µM)	8 (≈ 48.4 µM)	> 64	1.5 (≈ 9.08 µM)	64 (≈ 388 µM)	>100	6.25	inactive	GI50 (SF-268): inactive; GI50 (MCF7): 0.48 µg/mL (≈ 2.91 µM); MBC (Neisseria gonorrhoeae [17]): 4 µg/mL (≈ 24.2 µM); MIC [18]: 6.25 µg; GI50 (SK-MEL-5): inactive; GI50 (BXPC-3): 1.6 µg/mL (≈ 9.69 µM); MIC (Neisseria gonorrhoeae [19]): <0.78 µg; MIC (Enterococcus faecalis [20]): > 64 µg/mL; GI50 (NCI-H460): 1.7 µg/mL (≈ 10.3 µM); MIC (Staphylococcus aureus [21]): 50 µg; GI50 (OVCAR-3): inactive; GI50 (SF-295; SF-295, 48 h): 1.7 µg/mL (≈ 10.3 µM); MIC (Neisseria gonorrhoeae [22]): 4 µg/mL (≈ 24.2 µM); MIC (Enterobacter cloacae [23]): 25 µg; MIC [24]: > 64 µg/mL
